From patent US9920057B2, “Substituted pyrazino[1′,2′:1 ,6]pyrido[3,4-b]indoles as phosphodiesterase type 5 inhibitors” (Chongqing University of Arts and Sciences, priority 2015, dated 2018)
Several values for one entry are separate records, joined by “and”; a condition that tells them apart may be missing. Equal entries are not always repeated. Where two headings read alike, the source gives them in different places. One block for each molecule: values may come before it.

How the values were obtained:
[1] = Study on pharmacokinetics in rats, oral administration; assay type: in vivo, SD rat; settings: oral 10.0 mg · kg^−1
Experimental: Sample Preparation Method: One step protein precipitation
Precipitant: ACN, with concentration of Verapamil (5.00 ng·mL-1)
Calibration Curve and QC samples Preparation: 5.00 μL each of the calibration or QC working solution and 45.0 μL of blank plasma were transferred into a 1.5-mL microcentrifuge tube. Final standard curve concentration levels were 1.00, 2.50, 5.00, 10.0, 50.0, 100, 500 and 1000 ng·mL-1. The QC concentration levels were 2.50 or 5.00, 50.0 and 800 ng·mL-1. Dilution QC was 5000 ng·mL-1.
Plasma Samples Preparation: Aliquots of 10.0 μL of real samples, calibration curve samples and QC samples were supplemented with 100 μL of precipitant. After vortexed for 3.00 min and centrifuged at 12000 rpm for 5.00 min, the supernatant 10 μL was injected for LC-MS/MS analysis.
Number of Rats/Group: 3/group
Administration Route: oral administration
Blood Collection Time: 0 min, 15 min, 30 min, 1 h, 2 h, 4 h, 6 h, 8 h, 24 h

normal rat = test: Erectile function of normal rat: blood pressure, intracavernous pressure and detumescence time on cavernous nerve stimulation; assay type: in vivo; settings: reference group (Calais), dose not stated
Experimental: Rats were anesthetized with 2% pentobarbital […], then incision was made in the right side of neck, a PE-50 silicon tube connected with a pressure transducer was inserted into the carotid artery, to record the change of the blood pressure.
The erectile activity was induced by a bipolar stainless-steel, stimulus parameters at a pulse width of […], stimulation frequency of 7.98 Hz, current of 3 mA, stimulation duration of 40 s, and then record the intracavernous pressure (ICP).
Assessment of erectile function: ICP, BP, change of ICP and detumescence time were monitored though electric cavernous nerve stimulation at 2, 6 and 24 hours post dosing. Erectile function was evaluated by change of ICP and detumescence time.

PDE1A = target: T1, PDE1A (Homo sapiens, UniProt P54750); test: Inhibition of PDE activity (assay kit); assay type: biochemical
T1 construct: purchased
T1 sequence (P54750 whole entry): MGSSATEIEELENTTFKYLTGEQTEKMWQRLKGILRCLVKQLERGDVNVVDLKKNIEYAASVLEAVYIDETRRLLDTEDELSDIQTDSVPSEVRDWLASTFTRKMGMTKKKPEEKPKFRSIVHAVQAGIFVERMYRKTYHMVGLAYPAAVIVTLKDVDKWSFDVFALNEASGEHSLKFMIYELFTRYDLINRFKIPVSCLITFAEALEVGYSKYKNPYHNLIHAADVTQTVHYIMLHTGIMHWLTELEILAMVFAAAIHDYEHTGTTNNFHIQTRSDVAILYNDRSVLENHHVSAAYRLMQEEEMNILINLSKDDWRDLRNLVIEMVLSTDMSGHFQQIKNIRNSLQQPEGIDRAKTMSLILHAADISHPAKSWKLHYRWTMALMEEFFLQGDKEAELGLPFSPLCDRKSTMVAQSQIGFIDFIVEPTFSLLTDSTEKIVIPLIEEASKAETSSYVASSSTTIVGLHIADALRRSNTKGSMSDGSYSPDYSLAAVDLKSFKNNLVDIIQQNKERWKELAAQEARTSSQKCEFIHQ
Experimental: (§1) i. Supplement 99 μl assay buffer per well, then add 1 μl compound in DMSO dilution to wells of V96 MicroWell Plates and uniformly mix;
(§2) ii. Add 5 μl compound in assay buffer dilution to each well of 96-well microplate;
(§3) the final concentration of compound as below:
(§4) The inhibitory potential of test compounds on several types of phosphodiesterase (PDE) activity is determined according to the protocol of assay kit.

PDE2A = target: T2, PDE2A (Homo sapiens, UniProt O00408); test: Inhibition of PDE activity (assay kit); assay type: biochemical
T2 construct: purchased
T2 sequence (O00408 whole entry): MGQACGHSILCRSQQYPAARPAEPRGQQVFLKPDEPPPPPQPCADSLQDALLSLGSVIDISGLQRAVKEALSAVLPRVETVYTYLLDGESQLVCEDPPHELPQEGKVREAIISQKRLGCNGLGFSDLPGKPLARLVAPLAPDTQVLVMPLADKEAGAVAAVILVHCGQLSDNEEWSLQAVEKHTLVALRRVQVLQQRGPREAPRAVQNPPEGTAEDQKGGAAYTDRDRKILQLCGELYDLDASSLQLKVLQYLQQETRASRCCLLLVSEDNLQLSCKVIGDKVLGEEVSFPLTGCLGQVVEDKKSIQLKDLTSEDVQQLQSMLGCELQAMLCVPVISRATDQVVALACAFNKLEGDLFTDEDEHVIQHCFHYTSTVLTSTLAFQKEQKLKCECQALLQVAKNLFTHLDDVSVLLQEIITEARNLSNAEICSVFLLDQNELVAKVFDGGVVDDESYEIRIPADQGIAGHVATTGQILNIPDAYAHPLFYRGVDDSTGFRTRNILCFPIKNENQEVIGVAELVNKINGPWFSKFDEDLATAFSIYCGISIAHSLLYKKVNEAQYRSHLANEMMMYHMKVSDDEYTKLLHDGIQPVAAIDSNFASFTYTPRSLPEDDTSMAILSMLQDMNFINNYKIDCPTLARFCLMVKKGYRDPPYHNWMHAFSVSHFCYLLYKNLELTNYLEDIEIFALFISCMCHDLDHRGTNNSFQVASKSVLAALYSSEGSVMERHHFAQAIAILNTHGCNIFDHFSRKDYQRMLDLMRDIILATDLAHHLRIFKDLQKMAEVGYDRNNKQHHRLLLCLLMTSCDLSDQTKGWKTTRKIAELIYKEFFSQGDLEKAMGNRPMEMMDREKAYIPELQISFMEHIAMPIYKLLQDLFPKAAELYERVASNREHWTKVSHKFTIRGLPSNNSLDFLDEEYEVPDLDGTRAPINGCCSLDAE
Experimental: as §1, §2, §3, §4

PDE3A = target: T3, PDE3A (Homo sapiens, UniProt Q14432); test: Inhibition of PDE activity (assay kit); assay type: biochemical
T3 construct: purchased
T3 sequence (Q14432 whole entry): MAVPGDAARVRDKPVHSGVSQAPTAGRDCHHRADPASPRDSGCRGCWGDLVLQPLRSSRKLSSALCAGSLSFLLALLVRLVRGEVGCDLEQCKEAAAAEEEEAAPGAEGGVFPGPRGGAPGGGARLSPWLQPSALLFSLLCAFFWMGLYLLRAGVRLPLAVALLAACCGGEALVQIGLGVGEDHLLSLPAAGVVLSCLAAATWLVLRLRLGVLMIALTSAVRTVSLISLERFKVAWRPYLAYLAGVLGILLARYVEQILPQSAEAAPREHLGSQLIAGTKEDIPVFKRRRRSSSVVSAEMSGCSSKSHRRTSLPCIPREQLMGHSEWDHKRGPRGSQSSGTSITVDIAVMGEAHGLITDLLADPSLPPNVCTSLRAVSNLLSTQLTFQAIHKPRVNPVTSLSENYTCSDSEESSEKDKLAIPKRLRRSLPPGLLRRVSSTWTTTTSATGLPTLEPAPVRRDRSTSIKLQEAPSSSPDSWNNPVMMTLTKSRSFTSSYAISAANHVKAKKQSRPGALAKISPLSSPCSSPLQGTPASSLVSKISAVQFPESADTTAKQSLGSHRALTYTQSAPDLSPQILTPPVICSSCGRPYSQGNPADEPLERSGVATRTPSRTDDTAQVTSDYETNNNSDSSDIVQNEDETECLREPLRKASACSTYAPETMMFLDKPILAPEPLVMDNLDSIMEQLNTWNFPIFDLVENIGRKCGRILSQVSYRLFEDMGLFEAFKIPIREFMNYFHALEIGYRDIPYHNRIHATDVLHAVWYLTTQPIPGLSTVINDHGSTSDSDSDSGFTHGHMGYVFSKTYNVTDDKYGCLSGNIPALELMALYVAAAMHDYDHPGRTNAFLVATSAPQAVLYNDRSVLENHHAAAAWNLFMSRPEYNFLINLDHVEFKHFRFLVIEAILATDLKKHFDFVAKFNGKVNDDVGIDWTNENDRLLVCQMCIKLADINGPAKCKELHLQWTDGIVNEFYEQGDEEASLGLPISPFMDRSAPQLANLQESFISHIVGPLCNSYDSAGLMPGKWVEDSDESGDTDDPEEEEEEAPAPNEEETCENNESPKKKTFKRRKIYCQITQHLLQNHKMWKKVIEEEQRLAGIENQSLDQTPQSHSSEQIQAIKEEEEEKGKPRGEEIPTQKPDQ
Experimental: as §1, §2, §3, §4

PDE7A = target: T4, PDE7A (Homo sapiens, UniProt Q13946); test: Inhibition of PDE activity (assay kit); assay type: biochemical
T4 construct: purchased
T4 sequence (Q13946 whole entry): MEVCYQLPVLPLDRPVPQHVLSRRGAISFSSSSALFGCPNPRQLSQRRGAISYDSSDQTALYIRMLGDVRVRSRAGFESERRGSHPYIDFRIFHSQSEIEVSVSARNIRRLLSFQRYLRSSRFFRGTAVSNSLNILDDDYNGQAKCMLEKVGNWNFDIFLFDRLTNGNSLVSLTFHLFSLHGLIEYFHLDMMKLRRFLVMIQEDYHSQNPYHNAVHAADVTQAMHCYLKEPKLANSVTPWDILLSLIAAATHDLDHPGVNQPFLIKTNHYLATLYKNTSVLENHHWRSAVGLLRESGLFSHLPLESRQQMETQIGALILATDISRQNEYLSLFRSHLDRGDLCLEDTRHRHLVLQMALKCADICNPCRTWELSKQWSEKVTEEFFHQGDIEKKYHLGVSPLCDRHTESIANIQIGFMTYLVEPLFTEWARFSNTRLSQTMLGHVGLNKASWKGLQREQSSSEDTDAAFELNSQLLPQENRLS
Experimental: as §1, §2, §3, §4

[2] = background statement; cited from earlier work
PDE5A = target: T5, PDE5A (Homo sapiens, UniProt O76074); test: Inhibition against PDE5 (Homogenous Time Resolve Fluoresce); assay type: biochemical; settings: HTF
T5 construct: purchased SIGMA-ALDRICH E904
Experimental: Method: IC50 of an inhibition effect on PDE5A (E904, SIGMA-ALDRICH) of test compounds was tested by using Sildenafil (S1431, selleck) as a positive control sample and the method of Homogenous Time Resolve Fluoresce, HTF (Cat. No. 62GM2PEB, Cisbio.)

[3] = SD, rat, plasma, po, 10 mg/kg, Mean of 3 rats
[4] = SD, rat, plasma, po, 10 mg/kg, Mean of 3 rats, read-out: AUC0-inf
[5] = SD, rat, plasma, po, 10 mg/kg, Mean of 3 rats, read-out: AUC0-t
[6] = SD, rat, plasma, po, 10 mg/kg, Mean of 3 rats, read-out: Cmax
[7] = SD, rat, plasma, po, 10 mg/kg, individual rats
[8] = SD, rat, plasma, po, 10 mg/kg, individual rats, read-out: AUC0-inf
[9] = SD, rat, plasma, po, 10 mg/kg, individual rats, read-out: AUC0-t
[10] = SD, rat, plasma, individual rats

AUMC0-inf ([1]; Mean of 3 rats): 54240 h · h · ng · mL^−1
AUMC0-t ([1]; Mean of 3 rats): 52702 h · h · ng · mL^−1
Kel ([1]; Mean of 3 rats): 0.248 h⁻¹
MRTPO ([1]; Mean of 3 rats): 6.07 h
half-life [1, 3]: 2.99 h
AUC0-inf [1, 4]: 8860 ng·h/mL
AUC0-t [1, 5]: 8810 ng·h/mL
Cmax [1, 6]: 926 ng/mL
half-life [1, 7]: 3.46 h
AUC0-inf [1, 8]: 8810 ng·h/mL
AUC0-t [1, 9]: 8720 ng·h/mL
Tmax [1, 10]: 4 h
Kel ([1]; individual rats): 0.200 h⁻¹ and 0.197 h⁻¹ and 0.346 h⁻¹
MRTPO ([1]; individual rats): 6.40 h and 5.69 h and 6.13 h
t1/2 ([1]; individual rats): 3.51 h and 2.00 h
IC50 (PDE1A): > 10 µM
IC50 (PDE2A): > 10 µM
IC50 (PDE3A): > 10 µM
IC50 (PDE7A): > 10 µM
SMILES: CN1CC(=O)N2[C@H](c3ccc4c(c3)OCO4)c3[nH]c4ccccc4c3C[C@@H]2C1=O [Cialis]
AUC0-inf ([1]; individual rats): 6051 ng·h/mL and 11729 ng·h/mL
AUC0-t ([1]; individual rats): 5993 ng·h/mL and 11723 ng·h/mL
AUMC0-inf ([1]; individual rats): 56364 h · h · ng · mL^−1 and 34440 h · h · ng · mL^−1 and 71915 h · h · ng · mL^−1
AUMC0-t ([1]; individual rats): 53611 h · h · ng · mL^−1 and 32747 h · h · ng · mL^−1 and 71748 h · h · ng · mL^−1
Cmax ([1]; individual rats): 747 ng/mL and 676 ng/mL and 1356 ng/mL
BP after stimulation (normal rat; 2 hours after dosing): 64.14 ± 9.86 mmHg
BP before stimulation (normal rat; 2 hours after dosing): 100.98 ± 4.48 mmHg
Change of BP (normal rat; 2 hours after dosing): 36.85 ± 7.34 mmHg
Change of ICP (normal rat; 2 hours after dosing): 31.82 ± 7.63 mmHg
Detumescence Time (normal rat; 2 hours after dosing): 40.50 ± 21.14 s
ICP after stimulation (normal rat; 2 hours after dosing): 39.19 ± 8.58 mmHg
ICP before stimulation (normal rat; 2 hours after dosing): 7.38 ± 1.75 mmHg
BP after stimulation (normal rat; 6 hours after dosing): 58.14 ± 14.30 mmHg
BP before stimulation (normal rat; 6 hours after dosing): 91.20 ± 28.48 mmHg
Change of BP (normal rat; 6 hours after dosing): 33.07 ± 17.13 mmHg
Change of ICP (normal rat; 6 hours after dosing): 34.15 ± 6.99 mmHg
Detumescence Time (normal rat; 6 hours after dosing): 44.25 ± 13.35 s
ICP after stimulation (normal rat; 6 hours after dosing): 41.76 ± 6.49 mmHg
ICP before stimulation (normal rat; 6 hours after dosing): 7.61 ± 1.53 mmHg
BP after stimulation (normal rat; 24 hours after dosing): 78.00 ± 2.68 mmHg
Change of BP (normal rat; 24 hours after dosing): 34.26 ± 7.18 mmHg
Change of ICP (normal rat; 24 hours after dosing): 35.38 ± 4.55 mmHg
Detumescence Time (normal rat; 24 hours after dosing): 41.25 ± 10.34 s
ICP after stimulation (normal rat; 24 hours after dosing): 43.01 ± 6.19 mmHg
ICP before stimulation (normal rat; 24 hours after dosing): 7.63 ± 4.03 mmHg
half-life in body [2]: 24 to 36 h

IC50 (PDE5A): 0.566 µM
AUMC0-inf ([1]; Mean of 3 rats): 69719 h · h · ng · mL^−1
AUMC0-t ([1]; Mean of 3 rats): 63864 h · h · ng · mL^−1
Kel ([1]; Mean of 3 rats): 0.193 h⁻¹
MRTPO ([1]; Mean of 3 rats): 4.19 h
half-life [1, 3]: 3.73 h
AUC0-inf [1, 4]: 16300 ng·h/mL
AUC0-t [1, 5]: 16100 ng·h/mL
Cmax [1, 6]: 4680 ng/mL
half-life [1, 7]: 4.85 h
AUC0-inf [1, 8]: 18600 ng·h/mL
AUC0-t [1, 9]: 18100 ng·h/mL
Cmax ([1]; SD, rat, plasma, po, 10 mg/kg, individual rats, read-out: Cmax): 4580 ng/mL
Tmax [1, 10]: 0.25 h
Cmax ([1]; individual rats): 4288 ng/mL and 5171 ng/mL
Kel ([1]; individual rats): 0.143 h⁻¹ and 0.221 h⁻¹ and 0.216 h⁻¹
MRTPO ([1]; individual rats): 5.35 h and 3.70 h and 3.52 h
t1/2 ([1]; individual rats): 3.14 h and 3.21 h
SMILES: NN1CC(=O)N2[C@H](c3ccc4c(c3)OCO4)c3[nH]c4ccccc4c3C[C@@H]2C1=O [DDCI02]
AUC0-inf ([1]; individual rats): 15617 ng·h/mL and 14794 ng·h/mL
AUC0-t ([1]; individual rats): 15563 ng·h/mL and 14723 ng·h/mL
AUMC0-inf ([1]; individual rats): 99393 h · h · ng · mL^−1 and 57718 h · h · ng · mL^−1 and 52047 h · h · ng · mL^−1
AUMC0-t ([1]; individual rats): 85428 h · h · ng · mL^−1 and 56156 h · h · ng · mL^−1 and 50008 h · h · ng · mL^−1
